Columns and labels:
[1] = molecular target: 5-hydroxytryptamine receptor 2B (Homo sapiens, UniProt P41595); format: functional, cell-based
[2] = molecular target: T1, Gastrin/cholecystokinin type B receptor (Homo sapiens, UniProt P32239)
T1 sequence (P32239 whole entry): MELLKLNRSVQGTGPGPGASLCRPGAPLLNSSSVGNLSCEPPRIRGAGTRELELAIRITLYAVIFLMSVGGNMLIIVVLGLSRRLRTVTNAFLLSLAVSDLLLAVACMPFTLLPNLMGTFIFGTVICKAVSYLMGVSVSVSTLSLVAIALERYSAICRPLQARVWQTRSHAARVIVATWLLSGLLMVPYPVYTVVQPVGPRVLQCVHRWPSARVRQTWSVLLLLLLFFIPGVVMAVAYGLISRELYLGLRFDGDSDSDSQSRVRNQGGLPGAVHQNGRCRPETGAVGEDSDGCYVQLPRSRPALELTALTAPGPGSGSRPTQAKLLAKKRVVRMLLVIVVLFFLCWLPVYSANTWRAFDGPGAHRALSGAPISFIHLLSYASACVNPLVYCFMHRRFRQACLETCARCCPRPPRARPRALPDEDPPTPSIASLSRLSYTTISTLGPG

[3] = molecular target: T2, Equilibrative nucleoside transporter 1 (Homo sapiens, UniProt Q99808)
T2 sequence (Q99808 whole entry): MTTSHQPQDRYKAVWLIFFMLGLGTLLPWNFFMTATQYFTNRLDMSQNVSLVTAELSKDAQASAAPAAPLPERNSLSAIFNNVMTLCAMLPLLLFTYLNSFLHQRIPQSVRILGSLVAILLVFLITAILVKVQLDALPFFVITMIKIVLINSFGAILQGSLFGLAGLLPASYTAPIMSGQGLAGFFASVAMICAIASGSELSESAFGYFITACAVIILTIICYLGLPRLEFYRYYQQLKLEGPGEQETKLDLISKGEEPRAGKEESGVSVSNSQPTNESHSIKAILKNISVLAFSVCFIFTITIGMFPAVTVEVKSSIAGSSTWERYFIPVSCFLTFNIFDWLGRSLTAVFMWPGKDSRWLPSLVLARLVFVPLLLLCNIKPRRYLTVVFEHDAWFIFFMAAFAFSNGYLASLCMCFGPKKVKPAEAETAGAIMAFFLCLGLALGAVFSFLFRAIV

[4] = molecular target: T3, Alpha-2A adrenergic receptor (Homo sapiens, UniProt P08913); format: functional, cell-based
T3 sequence (P08913 whole entry): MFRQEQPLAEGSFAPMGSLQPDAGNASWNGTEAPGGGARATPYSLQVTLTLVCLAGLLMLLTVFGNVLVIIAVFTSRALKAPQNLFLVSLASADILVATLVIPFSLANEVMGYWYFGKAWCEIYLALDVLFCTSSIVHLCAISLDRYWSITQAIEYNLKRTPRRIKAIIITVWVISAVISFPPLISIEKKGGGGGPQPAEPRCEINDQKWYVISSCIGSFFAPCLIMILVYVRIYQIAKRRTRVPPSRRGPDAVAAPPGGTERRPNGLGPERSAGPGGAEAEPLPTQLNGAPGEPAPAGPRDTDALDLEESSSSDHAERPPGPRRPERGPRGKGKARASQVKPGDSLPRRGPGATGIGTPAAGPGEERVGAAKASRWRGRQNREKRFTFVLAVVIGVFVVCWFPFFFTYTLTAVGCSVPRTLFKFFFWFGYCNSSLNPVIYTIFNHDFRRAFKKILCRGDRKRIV

[5] = molecular target: Beta-1 adrenergic receptor (Homo sapiens, UniProt P08588); format: functional
Chain of Beta-1 adrenergic receptor (P08588 whole entry): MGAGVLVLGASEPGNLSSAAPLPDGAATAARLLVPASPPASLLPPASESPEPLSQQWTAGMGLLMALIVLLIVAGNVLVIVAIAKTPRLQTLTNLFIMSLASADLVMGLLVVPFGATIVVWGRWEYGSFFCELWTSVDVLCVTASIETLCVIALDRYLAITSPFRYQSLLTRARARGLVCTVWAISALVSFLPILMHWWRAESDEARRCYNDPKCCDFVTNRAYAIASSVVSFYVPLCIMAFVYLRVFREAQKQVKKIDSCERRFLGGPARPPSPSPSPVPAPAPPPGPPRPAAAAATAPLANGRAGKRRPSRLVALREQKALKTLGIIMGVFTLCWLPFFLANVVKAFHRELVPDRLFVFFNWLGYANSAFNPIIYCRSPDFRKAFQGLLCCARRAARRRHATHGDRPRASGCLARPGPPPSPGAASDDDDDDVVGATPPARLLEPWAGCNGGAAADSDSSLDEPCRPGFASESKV

[6] = molecular target: T4, 5-hydroxytryptamine receptor 2C (Homo sapiens, UniProt P28335)
T4 sequence (P28335 whole entry): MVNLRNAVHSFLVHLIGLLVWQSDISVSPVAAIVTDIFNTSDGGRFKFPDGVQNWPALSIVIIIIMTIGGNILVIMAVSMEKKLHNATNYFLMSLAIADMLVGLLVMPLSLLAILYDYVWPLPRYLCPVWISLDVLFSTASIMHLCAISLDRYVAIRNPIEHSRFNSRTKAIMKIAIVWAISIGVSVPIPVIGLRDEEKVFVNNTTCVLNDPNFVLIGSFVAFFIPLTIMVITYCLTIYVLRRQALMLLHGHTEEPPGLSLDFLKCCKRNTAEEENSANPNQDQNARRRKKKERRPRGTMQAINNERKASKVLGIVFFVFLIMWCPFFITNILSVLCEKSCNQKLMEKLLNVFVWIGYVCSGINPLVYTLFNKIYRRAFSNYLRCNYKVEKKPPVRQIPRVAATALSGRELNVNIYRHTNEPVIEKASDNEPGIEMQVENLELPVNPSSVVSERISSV

B2 bradykinin receptor = molecular target: T5, B2 bradykinin receptor (Homo sapiens, UniProt P30411)
T5 sequence (P30411 whole entry): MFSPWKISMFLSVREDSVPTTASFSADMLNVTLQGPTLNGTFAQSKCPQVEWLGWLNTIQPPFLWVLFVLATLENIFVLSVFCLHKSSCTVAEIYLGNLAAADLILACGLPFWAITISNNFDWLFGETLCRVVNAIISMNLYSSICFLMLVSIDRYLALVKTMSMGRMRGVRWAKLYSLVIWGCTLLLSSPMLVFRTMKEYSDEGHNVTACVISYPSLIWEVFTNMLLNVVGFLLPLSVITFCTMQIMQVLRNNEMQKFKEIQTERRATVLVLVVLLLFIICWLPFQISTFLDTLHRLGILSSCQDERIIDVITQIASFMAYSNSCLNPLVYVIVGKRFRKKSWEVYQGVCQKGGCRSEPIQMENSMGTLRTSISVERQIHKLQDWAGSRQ

[7] = molecular target: T6, Prostaglandin G/H synthase 1 (Rattus norvegicus, UniProt Q63921); format: functional
T6 sequence (Q63921 whole entry): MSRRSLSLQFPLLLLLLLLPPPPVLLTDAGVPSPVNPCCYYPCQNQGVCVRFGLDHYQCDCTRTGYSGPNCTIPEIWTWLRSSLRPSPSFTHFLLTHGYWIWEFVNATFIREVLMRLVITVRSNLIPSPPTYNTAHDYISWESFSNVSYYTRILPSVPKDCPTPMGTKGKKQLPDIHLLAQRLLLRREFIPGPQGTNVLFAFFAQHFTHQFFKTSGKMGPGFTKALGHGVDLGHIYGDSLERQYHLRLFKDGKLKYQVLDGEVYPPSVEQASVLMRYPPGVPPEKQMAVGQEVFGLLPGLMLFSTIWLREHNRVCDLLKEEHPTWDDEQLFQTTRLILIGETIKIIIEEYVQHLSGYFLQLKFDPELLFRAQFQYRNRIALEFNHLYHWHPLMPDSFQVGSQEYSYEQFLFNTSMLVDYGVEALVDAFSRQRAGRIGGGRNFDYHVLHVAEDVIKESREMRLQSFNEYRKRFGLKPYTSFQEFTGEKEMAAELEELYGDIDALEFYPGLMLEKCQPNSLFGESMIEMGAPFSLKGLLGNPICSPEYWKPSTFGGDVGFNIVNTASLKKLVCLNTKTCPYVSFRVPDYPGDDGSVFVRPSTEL
Also: assay procedure not described here.

Chain of 5-hydroxytryptamine receptor 2B (P41595 whole entry): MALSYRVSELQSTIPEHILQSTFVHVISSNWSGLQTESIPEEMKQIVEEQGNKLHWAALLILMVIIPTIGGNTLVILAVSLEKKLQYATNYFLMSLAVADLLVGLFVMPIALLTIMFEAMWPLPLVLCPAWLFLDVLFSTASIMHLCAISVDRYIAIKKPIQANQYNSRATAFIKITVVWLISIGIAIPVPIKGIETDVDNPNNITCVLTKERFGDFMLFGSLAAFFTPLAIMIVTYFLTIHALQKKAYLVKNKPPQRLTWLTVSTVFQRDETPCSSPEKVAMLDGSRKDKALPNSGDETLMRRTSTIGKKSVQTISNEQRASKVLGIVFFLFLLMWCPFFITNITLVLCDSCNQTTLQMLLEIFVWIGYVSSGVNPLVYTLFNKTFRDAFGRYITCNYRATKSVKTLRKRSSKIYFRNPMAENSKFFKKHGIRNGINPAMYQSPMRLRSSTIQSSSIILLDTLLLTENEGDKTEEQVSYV

## Oc1ccc2c(c1)[C@@]13CCCC[C@@]1(O)[C@@H](C2)N(CC1CCC1)CC3 [BUTORPHANOL]
[1]
  AC50: > 30 µM
[2]
  AC50: > 30 µM
[3]
  AC50: > 30 µM
[4]
  AC50: > 30 µM
[5]
  AC50: > 30 µM
[6]
  AC50: > 30 µM
B2 bradykinin receptor
  AC50: > 30 µM
[7]
  AC50: > 30 µM

## C=C1/C(=C\C=C2/CCC[C@]3(C)[C@@H]([C@H](C)/C=C/[C@@H](O)C4CC4)CC[C@@H]23)C[C@@H](O)C[C@@H]1O [CALCIPOTRIENE]
[1]
  AC50: > 30 µM
[2]
  AC50: > 30 µM
[3]
  AC50: > 30 µM
[4]
  AC50: > 30 µM
[5]
  AC50: > 30 µM
[6]
  AC50: > 30 µM
B2 bradykinin receptor
  AC50: > 30 µM
[7]
  AC50: 2.2 µM

## CCN(CC)C(=O)Nc1ccc(OCC(O)CNC(C)(C)C)c(C(C)=O)c1 (stereo not given) [CELIPROLOL]
[1]
  AC50: > 30 µM
[2]
  AC50: > 30 µM
[3]
  AC50: > 30 µM
[4]
  AC50: > 30 µM
[5]
  AC50: 0.076 µM
[6]
  AC50: > 30 µM
B2 bradykinin receptor
  AC50: > 30 µM
[7]
  AC50: > 30 µM

## C=C[C@@]1(C)CC(=O)[C@]2(O)[C@@]3(C)[C@@H](O)CCC(C)(C)[C@@H]3[C@H](O)[C@H](OC(C)=O)[C@@]2(C)O1 [COLFORSIN]
[1]
  AC50: > 30 µM
[2]
  AC50: > 30 µM
[3]
  AC50: > 30 µM
[4]
  AC50: 4.3 µM
[5]
  AC50: > 30 µM
[6]
  AC50: > 30 µM
B2 bradykinin receptor
  AC50: > 30 µM
[7]
  AC50: > 30 µM

## CC(=O)OCC(=O)[C@@]1(O)[C@H](C)C[C@H]2[C@@H]3CCC4=CC(=O)C=C[C@]4(C)[C@@]3(F)[C@@H](O)C[C@@]21C [DEXAMETHASONE ACETATE]
[1]
  AC50: > 10 µM
[2]
  AC50: > 30 µM
[3]
  AC50: > 30 µM
[4]
  AC50: > 10 µM
[5]
  AC50: > 10 µM
[6]
  AC50: > 30 µM
B2 bradykinin receptor
  AC50: > 30 µM
[7]
  AC50: > 30 µM

## CCN(CC)CCN1C(=O)CN=C(c2ccccc2F)c2cc(Cl)ccc21 [FLURAZEPAM]
[1]
  AC50: > 10 µM
[2]
  AC50: > 30 µM
[3]
  AC50: > 30 µM
[4]
  AC50: > 10 µM
[5]
  AC50: > 10 µM
[6]
  AC50: > 30 µM
B2 bradykinin receptor
  AC50: > 30 µM
[7]
  AC50: > 30 µM

## CCCCCC(=O)O[C@]1(C(C)=O)CC[C@H]2[C@@H]3CCC4=CC(=O)CC[C@]4(C)[C@H]3CC[C@@]21C [HYDROXYPROGESTERONE CAPROATE]
[1]
  AC50: > 30 µM
[2]
  AC50: > 30 µM
[3]
  AC50: > 30 µM
[4]
  AC50: > 30 µM
[5]
  AC50: > 30 µM
[6]
  AC50: > 30 µM
B2 bradykinin receptor
  AC50: > 9.99 µM
[7]
  AC50: > 30 µM

## Nc1cc(-c2ccncc2)c[nH]c1=O [INAMRINONE]
[1]
  AC50: > 10 µM
[2]
  AC50: > 30 µM
[3]
  AC50: > 30 µM
[4]
  AC50: > 10 µM
[5]
  AC50: > 10 µM
[6]
  AC50: > 30 µM
B2 bradykinin receptor
  AC50: > 30 µM
[7]
  AC50: > 30 µM

## CCOC(=O)O[C@]1(C(=O)OCCl)CC[C@H]2[C@@H]3CCC4=CC(=O)C=C[C@]4(C)[C@H]3[C@@H](O)C[C@@]21C [LOTEPREDNOL ETABONATE]
[1]
  AC50: > 30 µM
[2]
  AC50: > 30 µM
[3]
  AC50: > 30 µM
[4]
  AC50: > 30 µM
[5]
  AC50: > 30 µM
[6]
  AC50: > 30 µM
B2 bradykinin receptor
  AC50: > 30 µM
[7]
  AC50: > 30 µM

## Cc1ncc2n1-c1ccc(Cl)cc1C(c1ccccc1F)=NC2 [MIDAZOLAM]
[1]
  AC50: > 10 µM
[2]
  AC50: > 30 µM
[3]
  AC50: > 30 µM
[4]
  AC50: > 10 µM
[5]
  AC50: > 10 µM
[6]
  AC50: > 30 µM
B2 bradykinin receptor
  AC50: > 30 µM
[7]
  AC50: > 30 µM

## COc1ccc(-c2noc(CC(=O)O)c2-c2ccc(OC)cc2)cc1 [MOFEZOLAC]
[1]
  AC50: > 30 µM
[2]
  AC50: > 10 µM
[3]
  AC50: > 30 µM
[4]
  AC50: > 30 µM
[5]
  AC50: > 30 µM
[6]
  AC50: > 30 µM
B2 bradykinin receptor
  AC50: > 30 µM
[7]
  AC50: 0.037 µM

## COc1ccc2nc3cc(Cl)ccc3c(Nc3cc(CN4CCCC4)c(O)c(CN4CCCC4)c3)c2n1 [PYRONARIDINE]
[1]
  AC50: > 30 µM
[2]
  AC50: > 30 µM
[3]
  AC50: 21 µM
[4]
  AC50: > 30 µM
[5]
  AC50: > 30 µM
[6]
  AC50: > 30 µM
B2 bradykinin receptor
  AC50: > 30 µM
[7]
  AC50: > 30 µM

## CC1=C(C)C(=O)C(C(CCCCCC(=O)O)c2ccccc2)=C(C)C1=O (stereo not given) [SERATRODAST]
[1]
  AC50: > 30 µM
[2]
  AC50: > 30 µM
[3]
  AC50: > 30 µM
[4]
  AC50: > 30 µM
[5]
  AC50: > 30 µM
[6]
  AC50: > 30 µM
B2 bradykinin receptor
  AC50: > 30 µM
[7]
  AC50: 1.14 µM

## CCN(CC)CCNC(=O)c1cc(S(C)(=O)=O)ccc1OC [TIAPRIDE]
[1]
  AC50: 29 µM
[2]
  AC50: > 30 µM
[3]
  AC50: > 30 µM
[4]
  AC50: > 30 µM
[5]
  AC50: > 30 µM
[6]
  AC50: > 30 µM
B2 bradykinin receptor
  AC50: > 30 µM
[7]
  AC50: > 30 µM

## NC1CCN(c2nc3c(cc2F)c(=O)c(C(=O)O)cn3-c2ccc(F)cc2F)C1 (stereo not given) [TOSUFLOXACIN]
[1]
  AC50: > 30 µM
[2]
  AC50: > 30 µM
[3]
  AC50: > 30 µM
[4]
  AC50: > 30 µM
[5]
  AC50: > 30 µM
[6]
  AC50: > 30 µM
B2 bradykinin receptor
  AC50: > 30 µM
[7]
  AC50: > 10 µM

— ChEMBL document CHEMBL5291721, “A preclinical secondary pharmacology resource illuminates target-adverse drug reaction associations of marketed drugs” (Nat Commun, 2023)
